Results from patent publication US5990122A, “Quinolone- and naphthyridonecarboxylic acid derivatives” (Bayer Aktiengesellschaft, priority 1994, dated 1999).
Values after ≈ are worked out from the molar mass of the structure shown. Read-outs that look alike come from different tables or passages of the source.

Experiments:
Format in all cases: cell-based
[1] = inhibition of DNA synthesis in cells from ovaries of the Chinese hamster (CHO-KI), genotoxic potential, fluorophotometric; settings: hamster, cho-k1 cells, measure of the genotoxic potential, read-out: ID50 (concentration at which DNA synthesis in CHO-KI cells is inhibited by 50%)
Excerpt: (§1) The following Tables 1 and 2 show the minimum inhibitory concentrations as a measure of the antibacterial activity and the ID50 values as a measure of the genotoxic potential of a substance both for compounds according to the invention and for reference compounds from the prior art (EP 520 240). The compounds according to the invention are distinguished in particular by the fact that they have lower interactions with mammalian DNA compared with the compounds according to the prior art. The ID50 is understood as meaning the concentration of a substance at which DNA synthesis in cells from ovaries of the Chinese hamster (CHO-KI) is inhibited by 50%. This value is determined after incubation of the corresponding substances in decreasing dilution stages over defined periods of time. For this, the DNA synthesis in CHO-KI cells is determined in comparison with controls by means of fluorophotometric methods.

[2] = tested on: Ps. aeruginosa Walter; assay: minimum inhibitory concentration (MIC), series dilution method on Iso-Sensitest agar; settings: 37° C., about 20 hours
Protocol: (§2) The minimum inhibitory concentrations (MIC) were determined by a series dilution method on Iso-Sensitest agar (Oxoid). For each test substance, a series of agar plates each comprising concentrations of the active compound decreasing by double dilution in each case was prepared. The agar plates were inoculated with a multipoint inoculator (Denley). Overnight cultures of the pathogens which had been diluted beforehand such that each inoculation point comprised about 10^4 colony-forming particles were used for the inoculation. The inoculation agar plates were incubated at 37° C. and the germ growth was read off after about 20 hours. The MIC value (μg/ml) indicated the lowest active compound concentration at which no growth was detectable with the naked eye.

[3] = tested on: E. coli Neumann; assay: as above; settings: 37° C., about 20 hours
Protocol: as §2

[4] = tested on: Bac. fragilis ES 25; assay: as above; settings: about 20 hours
Protocol: as §2

[5] = tested on: Staph. aureus ICB 25701; assay: as above; settings: about 20 hours
Protocol: as §2

[6] = tested on: Staph. aureus 133; assay: as above; settings: 37° C., about 20 hours
Protocol: as §2

[7] = tested on: CHO-KI cells; assay: inhibition of DNA synthesis in cells from ovaries of the Chinese hamster (CHO-KI), genotoxic potential, fluorophotometric; settings: measure of the genotoxic potential
Excerpt: as §1

[8] = Pseudomonas aeruginosa, read-out: MIC
[9] = Escherichia coli, read-out: MIC
[10] = Bacteroides fragilis, ES25, 37° C., read-out: MIC
[11] = Staphylococcus aureus, ICB25701, 37° C., read-out: MIC
[12] = Staphylococcus aureus, read-out: MIC

Row | Structure (SMILES) | IC50 [1] [µg/mL] | MIC [2, 8] [µg/mL] | MIC [3, 9] [µg/mL] | MIC [4, 10] [µg/mL] | MIC [5, 11] [µg/mL] | MIC [6, 12] [µg/mL] | ID50 (concentration at which DNA synthesis in CHO-KI cells is inhibited by 50%) [7] [µg/mL] | MIC [2] [µg/mL] | MIC [3] [µg/mL] | MIC ([4]; 37° C.) [µg/mL] | MIC ([5]; 37° C.) [µg/mL] | MIC [6] [µg/mL]
1 | NC12C=CC(CC1)C1CN(c3c(F)cc4c(=O)c(C(=O)O)cn(C5CC5)c4c3F)CC12 (centres unmarked) [Example 2] | 1 (≈ 2.34 µM) | 0.5 (≈ 1.17 µM) | 0.015 (≈ 0.0351 µM) | 0.5 (≈ 1.17 µM) | 0.062 (≈ 0.145 µM) | 0.015 (≈ 0.0351 µM) |  |  |  |  |  | 
2 | COc1c(N2CC3C4CCC(N)(CC4)C3C2)c(F)cc2c(=O)c(C(=O)O)cn(C3CC3)c12 (centres unmarked) [Example 20, 7-(1-amino-4-azatricyclo[5.2.2.0^2,6]undec-4-yl)-1-cyclopropyl-6-fluoro-1,4-dihydro-8-methoxy-4-oxo-3-quinolinecarboxylic acid] | 16 (≈ 36.2 µM) | 2 (≈ 4.53 µM) | 0.03 (≈ 0.0679 µM) | 1 (≈ 2.26 µM) | 0.125 (≈ 0.283 µM) | 0.015 (≈ 0.034 µM) |  |  |  |  |  | 
3 | CC1C=CC(N)C2CN(c3c(F)cc4c(=O)c(C(=O)O)cn(C5CC5)c4c3F)CC12 (centres unmarked) [Ref. 1, 7(4-amino-7-methyl-1,3,3a,4,7,7a-hexahydro-isoindol-2-y1)-1-cyclopropyl-6 8-difluoro-1,4-dihydro-4-oxo-3-quinolinecarboxylic acid, reference compound] |  | 0.5 (≈ 1.2 µM) | 0.015 (≈ 0.0361 µM) | 0.5 (≈ 1.2 µM) | 0.06 (≈ 0.144 µM) | 0.015 (≈ 0.0361 µM) |  |  |  |  |  | 
4 | CNC1C=CC(C)C2CN(c3c(F)cc4c(=O)c(C(=O)O)cn(C5CC5)c4c3Cl)CC12 (centres unmarked) [Ref. 4, 7(7-methyl-4-methylamino-1,3,3a,4,7,7a-hexahydro-isoindol-2-yl)-8-chloro- -cyclopropyl-6-fluoro-1,4-dihydro-4-oxo-3-quinolinecarboxylic acid, reference compound] | 0.1 (≈ 0.224 µM) | 1 (≈ 2.24 µM) | 0.03 (≈ 0.0673 µM) | 0.5 (≈ 1.12 µM) |  | 0.015 (≈ 0.0336 µM) |  |  |  |  |  | 
5 | NC12CCC(CC1)C1CN(c3c(F)cc4c(=O)c(C(=O)O)cn(C5CC5)c4c3F)CC12 (centres unmarked) [Example 18, 7-(1-amino-4-azatricyclo[5.2.2.0^2,6]undec-4-yl)-1-cyclopropyl-6,8-difluoro-1,4-dihydro-4-oxo-3-quinolinecarboxylic acid] | 1 (≈ 2.33 µM) | 2 (≈ 4.66 µM) | 0.03 (≈ 0.0699 µM) | 1 (≈ 2.33 µM) | 0.25 (≈ 0.582 µM) | 0.015 (≈ 0.0349 µM) |  |  |  |  |  | 
6 | NC12C=CC(CC1)C1CN(c3c(F)cc4c(=O)c(C(=O)O)cn(C5CC5)c4c3C(F)(F)F)CC12 (centres unmarked) [Example 6, 7-(1-Amino-4-aza-tricyclo[5.2.2.0^2,6]undec-8-en-4-yl)-1-cyclopropyl-6-fluoro-1,4-dihydro-4-oxo-8-trifluoromethyl-3-quinolinecarboxylic acid] | 10 (≈ 20.9 µM) | 4 (≈ 8.38 µM) | 0.06 (≈ 0.126 µM) | 0.25 (≈ 0.524 µM) | 0.125 (≈ 0.262 µM) | 0.015 (≈ 0.0314 µM) |  |  |  |  |  | 
7 | CN1COc2c(N3CC4C5CCC(N)(CC5)C4C3)c(F)c(N)c3c(=O)c(C(=O)O)cn1c23 (centres unmarked) [Example 22, 8-amino-10-(1-amino-4-azatricyclo[5.2.2.0^2,6]undecan-4-yl)-9-fluoro-3-methyl-7-oxo-2,3-dihydro-7H-pyrido[1,2,3-d,e][1,3,4]benzoxadiazine-6-carboxylic acid] |  |  |  |  |  |  | 8 (≈ 18 µM) | 8 (≈ 18 µM) | 0.125 (≈ 0.282 µM) | 4 (≈ 9.02 µM) | 2 (≈ 4.51 µM) | 0.031 (≈ 0.0699 µM)
8 | COc1c(N2CC3C(C)C=CC(N)C3C2)c(F)cc2c(=O)c(C(=O)O)cn(C3CC3)c12 (centres unmarked) [Ref. 2, 7(4-amino-7-methyl-1,3,3a,4,7,7a-hexahydro-isoindol-2-y1)-1-cyclopropyl-6 fluoro-1,4-dihydro-8-methoxy-4-oxo-3-quinolinecarboxylic acid, reference compound] |  | 1 (≈ 2.34 µM) | 0.015 (≈ 0.0351 µM) | 0.25 (≈ 0.585 µM) | 0.015 (≈ 0.0351 µM) | 0.015 (≈ 0.0351 µM) |  |  |  |  |  | 
9 | NC12C=CC(CC1)C1CN(c3c(F)cc4c(=O)c(C(=O)O)cn(C5CC5)c4c3Cl)CC12 (centres unmarked) [Example 3, 7-(1-Amino-4-aza-tricyclo[5.2.2.0^2,6]undec-8-en-4-yl)-8-chloro-1-cyclopropyl-6-fluoro-1,4-dihydro-4-oxo-3-quinoline-carboxylic acid] | 4 (≈ 9.01 µM) | 0.5 (≈ 1.13 µM) | 0.015 (≈ 0.0338 µM) | 0.125 (≈ 0.282 µM) | 0.031 (≈ 0.0698 µM) | 0.015 (≈ 0.0338 µM) |  |  |  |  |  | 
10 | NC12CCC(CC1)C1CN(c3c(F)cc4c(=O)c(C(=O)O)cn(C5CC5)c4c3C(F)(F)F)CC12 (centres unmarked) [Example 21, 7-(1-amino-4-azatricyclo[5.2.2.0^2,6]undec-4-yl)-1-cyclopropyl-6-fluoro-1,4-dihydro-4-oxo-8-trifluoromethyl-3-quinolinecarboxylic acid] | 10 (≈ 20.9 µM) | 4 (≈ 8.34 µM) | 0.015 (≈ 0.0313 µM) | 0.125 (≈ 0.261 µM) | 0.125 (≈ 0.261 µM) | 0.015 (≈ 0.0313 µM) |  |  |  |  |  | 
11 | COc1c(N2CC3C4C=CC(N)(CC4)C3C2)c(F)cc2c(=O)c(C(=O)O)cn(C3CC3)c12 (centres unmarked) [Example 5, 7-(1-amino-4-aza-tricyclo[5.2.2.0^2,6]undec-8-en-4-yl)-1-cyclopropyl-6-fluoro-1,4-dihydro-8-methoxy-4-oxo-3-quinolinecarboxylic acid] | 8 (≈ 18.2 µM) | 1 (≈ 2.28 µM) | 0.015 (≈ 0.0341 µM) | 0.125 (≈ 0.284 µM) | 0.031 (≈ 0.0705 µM) | 0.015 (≈ 0.0341 µM) |  |  |  |  |  | 
12 | NC12CCC(CC1)C1CN(c3c(F)cc4c(=O)c(C(=O)O)cn(C5CC5)c4c3Cl)CC12 (centres unmarked) [Example 19, 7-(1-amino-4-azatricyclo-[5.2.2.0^2,6]undec-4-yl)-8-chloro-1-cyclopropyl-6-fluoro-1,4-dihydro-4-oxo-3-quinolinecarboxylic acid] | 4 (≈ 8.97 µM) | 1 (≈ 2.24 µM) | 0.03 (≈ 0.0673 µM) | 0.125 (≈ 0.28 µM) | 0.06 (≈ 0.135 µM) | 0.015 (≈ 0.0336 µM) |  |  |  |  |  | 
13 | CC1C=CC(N)C2CN(c3c(F)cc4c(=O)c(C(=O)O)cn(C5CC5)c4c3Cl)CC12 (centres unmarked) [Ref. 3, 7(4-amino-7-methyl-1,3,3a,4,7,7a-hexahydro-isoindol-2-yl)-8-chloro-1-cycl propyl-6-fluoro-1,4-dihydro-4-oxo-3-quinolinecarboxylic acid, reference compound] |  | 0.5 (≈ 1.16 µM) | 0.015 (≈ 0.0347 µM) | 0.125 (≈ 0.289 µM) | 0.015 (≈ 0.0347 µM) | 0.015 (≈ 0.0347 µM) |  |  |  |  |  | 
14 | NC12C=CC(CC1)C1CN(c3cc4c(cc3F)c(=O)c(C(=O)O)cn4C3CC3)CC12 (centres unmarked) [Example 1, 7-(1-amino-4-aza-tricyclo[5.2.2.0^2,6]undec-8-en-4-yl)-1-cyclopropyl-6-fluoro-1,4-dihydro-4-oxo-3-quinolinecarboxylic acid] | 24 (≈ 58.6 µM) | 8 (≈ 19.5 µM) | 0.125 (≈ 0.305 µM) | 16 (≈ 39.1 µM) | 8 (≈ 19.5 µM) | 0.062 (≈ 0.151 µM) |  |  |  |  |  | 
